How the values were obtained:
[1] = system: chorionic stromal cells in suspension; assay: Uptake of FITC-trehalose by chorionic stromal cells in suspension; assay type: cell-based, human; settings: 4 hours at room temperature
Procedure: Previous reports of lyophilization of cells in suspension have used trehalose as a lyoprotectant. To confirm that placental cells can uptake trehalose, cells were fully isolated from chorionic membranes and added to a well-plate. To the cell suspension, a commercially available fluorescently tagged trehalose, FITC-trehalose, was added and allowed to incubate for 4 hours at room temperature. Cells were washed multiple times to remove any remaining free FITC-trehalose.

[2] = system: chondrocytes embedded in bovine cartilage matrix; assay: Uptake of FITC-trehalose by chondrocytes embedded in bovine cartilage matrix; assay type: cell-based; settings: intact bovine cartilage, 4 hours
Procedure: The same lyophilization methods effective for placental membrane and skin allograft compositions were used for cartilage graft compositions. First, intact pieces of bovine cartilage were incubated with FITC-trehalose for 4 hours and washed thoroughly to remove excess trehalose. […] Intact bovine cartilage, intact bovine cartilage with 1 mm pores, and micronized bovine cartilage were soaked in a trehalose solution for 4 hours at 37 C with agitation prior to lyophilization in the same trehalose solution.

[3] = system: stromal cells in the chorionic membrane; assay: Uptake of FITC-trehalose by native cells in fresh chorionic membrane; assay type: cell-based, human; settings: 2.5 mM FITC-trehalose in 0.5M trehalose, room temperature, 1 hour
Procedure: (§1) To further investigate the protective mechanism that leads to viable lyophilized placental membrane compositions, fresh amniotic and chorionic membranes were incubated in 2.5 mM FITC-trehalose in a 0.5M trehalose solution at room temperature for 1 hour and then thoroughly washed to remove excess trehalose. […] Longer incubation times with higher concentrations of trehalose at an elevated temperature could increase diffusion of trehalose into these cells and may promote enhanced cell survival following lyophilization.

[4] = system: epithelial cells in the amniotic membrane; assay: Uptake of FITC-trehalose by native cells in fresh amniotic membrane; assay type: cell-based, human; settings: 2.5 mM FITC-trehalose in 0.5M trehalose, room temperature, 1 hour
Procedure: as §1

uptake of trehalose [1]: uptake trehalose at low levels
uptake of trehalose [3]: readily uptake trehalose
uptake of trehalose [4]: readily uptake trehalose
Substance: FITC-trehalose
uptake of trehalose [2]: some trehalose can be taken up by chondrocytes

— patent US20260091065A1, “VIABLE LYOPHILIZED COMPOSITIONS DERIVED FROM HUMAN TISSUES AND METHODS OF MAKING THE SAME” (OSIRIS THERAPEUTICS, INC., priority 2016, published 2026)
